Columns and labels:
Assay in all cases: relative viability (nuclei count vs DMSO), 5 days (fraction); higher = more cells survive
NCI-H460 = system: NCI-H460
Outline: (§1)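 Dosing by pin tool came one day after lung cancer cell lines were seeded in 1536-well plates, using either one drug or a fixed anchor-drug dose plus five library-drug doses (not always all listed) in √10 steps. After 5 days, nuclei were counted on 4× images. Relative viability is treated-well nuclei count divided by vehicle-well nuclei count, and values are medians of duplicate plates.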

NCI-H1944 = system: NCI-H1944
Outline: as §1

NCI-H3122 = system: NCI-H3122
Outline: as §1

NCI-H2170 = system: NCI-H2170
Outline: as §1

NCI-H1651 = system: NCI-H1651
Outline: as §1

NCI-H2405 = system: NCI-H2405
Outline: as §1

LC-2-ad = system: LC-2-ad
Outline: as §1

RERF-LC-KJ = system: RERF-LC-KJ
Outline: as §1

HCC-78 = system: HCC-78
Outline: as §1

ChaGo-K-1 = system: ChaGo-K-1
Outline: as §1

UMC-11 = system: UMC-11
Outline: as §1

NCI-H2228 = system: NCI-H2228
Outline: as §1

LOU-NH91 = system: LOU-NH91
Outline: as §1

PC-3 [JPC-3] = system: PC-3 [JPC-3]
Outline: as §1

CAL-12T = system: CAL-12T
Outline: as §1

NCI-H2087 = system: NCI-H2087
Outline: as §1

NCI-H1755 = system: NCI-H1755
Outline: as §1

LU99A = system: LU99A
Outline: as §1

ABC-1 = system: ABC-1
Outline: as §1

HCC-366 = system: HCC-366
Outline: as §1

SMILES: Cc1sc2c(c1C)C(c1ccc(Cl)cc1)=N[C@@H](CC(=O)OC(C)(C)C)c1nnc(C)n1-2 [JQ1] + C[C@@H](Oc1cc(-c2cnn(C3CCNCC3)c2)cnc1N)c1c(Cl)ccc(F)c1Cl [Crizotinib] (partner 1 µM)
- relative viability (NCI-H460; first compound 0.04 µM): 0.806
- relative viability (NCI-H460; first compound 0.1265 µM): 0.597
- relative viability (NCI-H460; first compound 0.4 µM): 0.532
- relative viability (NCI-H460; first compound 1.265 µM): 0.0339
- relative viability (NCI-H460; first compound 4 µM): 0.0299
- relative viability (NCI-H1944; first compound 0.04 µM): 1.02
- relative viability (NCI-H1944; first compound 0.1265 µM): 0.905
- relative viability (NCI-H1944; first compound 0.4 µM): 0.719
- relative viability (NCI-H1944; first compound 1.265 µM): 0.574
- relative viability (NCI-H1944; first compound 4 µM): 0.447
- relative viability (NCI-H3122; first compound 0.04 µM): 0.312
- relative viability (NCI-H3122; first compound 0.1265 µM): 0.315
- relative viability (NCI-H3122; first compound 0.4 µM): 0.354
- relative viability (NCI-H3122; first compound 1.265 µM): 0.323
- relative viability (NCI-H3122; first compound 4 µM): 0.413
- relative viability (NCI-H2170; first compound 0.04 µM): 0.997
- relative viability (NCI-H2170; first compound 0.1265 µM): 1.12
- relative viability (NCI-H2170; first compound 0.4 µM): 0.72
- relative viability (NCI-H2170; first compound 1.265 µM): 0.599
- relative viability (NCI-H2170; first compound 4 µM): 0.517
- relative viability (NCI-H1651; first compound 0.04 µM): 0.795
- relative viability (NCI-H1651; first compound 0.1265 µM): 0.784
- relative viability (NCI-H1651; first compound 0.4 µM): 0.701
- relative viability (NCI-H1651; first compound 1.265 µM): 0.639
- relative viability (NCI-H1651; first compound 4 µM): 0.548
- relative viability (NCI-H2405; first compound 0.04 µM): 0.829
- relative viability (NCI-H2405; first compound 0.1265 µM): 0.711
- relative viability (NCI-H2405; first compound 0.4 µM): 0.749
- relative viability (NCI-H2405; first compound 1.265 µM): 0.555
- relative viability (NCI-H2405; first compound 4 µM): 0.395
- relative viability (LC-2-ad; first compound 0.04 µM): 0.44
- relative viability (LC-2-ad; first compound 0.1265 µM): 0.348
- relative viability (LC-2-ad; first compound 0.4 µM): 0.308
- relative viability (LC-2-ad; first compound 1.265 µM): 0.277
- relative viability (LC-2-ad; first compound 4 µM): 0.258
- relative viability (RERF-LC-KJ; first compound 0.04 µM): 0.783
- relative viability (RERF-LC-KJ; first compound 0.1265 µM): 0.879
- relative viability (RERF-LC-KJ; first compound 0.4 µM): 0.777
- relative viability (RERF-LC-KJ; first compound 1.265 µM): 0.635
- relative viability (RERF-LC-KJ; first compound 4 µM): 0.29
- relative viability (HCC-78; first compound 0.04 µM): 0.314
- relative viability (HCC-78; first compound 0.1265 µM): 0.33
- relative viability (HCC-78; first compound 0.4 µM): 0.348
- relative viability (HCC-78; first compound 1.265 µM): 0.275
- relative viability (HCC-78; first compound 4 µM): 0.251
- relative viability (ChaGo-K-1; first compound 0.04 µM): 1.04
- relative viability (ChaGo-K-1; first compound 0.4 µM): 0.689
- relative viability (ChaGo-K-1; first compound 1.265 µM): 0.513
- relative viability (ChaGo-K-1; first compound 4 µM): 0.387
- relative viability (UMC-11; first compound 0.04 µM): 0.501
- relative viability (UMC-11; first compound 0.1265 µM): 0.659
- relative viability (UMC-11; first compound 0.4 µM): 0.345
- relative viability (UMC-11; first compound 1.265 µM): 0.0933
- relative viability (UMC-11; first compound 4 µM): 0.0983
- relative viability (NCI-H2228; first compound 0.04 µM): 0.455
- relative viability (NCI-H2228; first compound 0.1265 µM): 0.417
- relative viability (NCI-H2228; first compound 0.4 µM): 0.38
- relative viability (NCI-H2228; first compound 1.265 µM): 0.306
- relative viability (NCI-H2228; first compound 4 µM): 0.317
- relative viability (LOU-NH91; first compound 0.04 µM): 0.719
- relative viability (LOU-NH91; first compound 0.1265 µM): 0.693
- relative viability (LOU-NH91; first compound 0.4 µM): 0.531
- relative viability (LOU-NH91; first compound 1.265 µM): 0.53
- relative viability (LOU-NH91; first compound 4 µM): 0.419
- relative viability (PC-3 [JPC-3]; first compound 0.04 µM): 1.06
- relative viability (PC-3 [JPC-3]; first compound 0.1265 µM): 1.03
- relative viability (PC-3 [JPC-3]; first compound 0.4 µM): 0.96
- relative viability (PC-3 [JPC-3]; first compound 1.265 µM): 0.851
- relative viability (PC-3 [JPC-3]; first compound 4 µM): 0.512
- relative viability (CAL-12T; first compound 0.04 µM): 0.528
- relative viability (CAL-12T; first compound 0.1265 µM): 0.316
- relative viability (CAL-12T; first compound 0.4 µM): 0.316
- relative viability (CAL-12T; first compound 1.265 µM): 0.133
- relative viability (CAL-12T; first compound 4 µM): 0.103
- relative viability (NCI-H2087; first compound 0.04 µM): 0.901
- relative viability (NCI-H2087; first compound 0.4 µM): 0.862
- relative viability (NCI-H2087; first compound 1.265 µM): 0.602
- relative viability (NCI-H2087; first compound 4 µM): 0.344
- relative viability (NCI-H1755; first compound 0.04 µM): 0.899
- relative viability (NCI-H1755; first compound 0.1265 µM): 0.854
- relative viability (NCI-H1755; first compound 0.4 µM): 0.901
- relative viability (NCI-H1755; first compound 1.265 µM): 0.67
- relative viability (NCI-H1755; first compound 4 µM): 0.608
- relative viability (LU99A; first compound 0.04 µM): 0.554
- relative viability (LU99A; first compound 0.1265 µM): 0.533
- relative viability (LU99A; first compound 0.4 µM): 0.278
- relative viability (LU99A; first compound 1.265 µM): 0.231
- relative viability (LU99A; first compound 4 µM): 0.198
- relative viability (ABC-1; first compound 0.04 µM): 0.844
- relative viability (ABC-1; first compound 0.1265 µM): 1.09
- relative viability (ABC-1; first compound 0.4 µM): 0.988
- relative viability (ABC-1; first compound 1.265 µM): 0.569
- relative viability (ABC-1; first compound 4 µM): 0.276
- relative viability (HCC-366; first compound 0.04 µM): 0.457
- relative viability (HCC-366; first compound 0.4 µM): 0.41
- relative viability (HCC-366; first compound 1.265 µM): 0.243
- relative viability (HCC-366; first compound 4 µM): 0.103

Source: the supplement of paper PMC10307832
